tested on: not given; experiment: not given; conditions: not given

melting point [°C]	Compound
203	CN1Cc2c(Br)ccc3scc(c23)S1(=O)=O [Example 11, 6-bromo-4-methyl-4,5-dihydro-1,3-dithia-4-aza-acenaphthylene-3,3-dioxide]
238	CN1Cc2c(C#N)ccc3scc(c23)S1(=O)=O [Example 16, 4-methyl-3,3-dioxo-4,5-dihydro-3H-1,3-dithia-4-aza-acenaphthylene-6-carbonitrile]

tested on: AMPA receptors; experiment: Electrophysiological measurement of intensification of the agonist-induced current on cells expressing functional AMPA receptors; assay type: cell-based; parameters: key: + good; ++ very good activity; conditions: concentrations between 0.3 μmol and 300 μmol
Procedure: Particular mention should be made of those applications in which the positive modulation of AMPA receptors plays a part. The effect of the compounds according to the invention as AMPA receptor modulators was measured electrophysiologically on cells which express functional AMPA receptors. Investigations were carried out to see whether the test substances have a positive allosteric influence on the agonist-induced current.
The test was carried out at concentrations of between 0.3 μmol and 300 μmol.

Compound	Effectiveness: Intensification of the agonist-induced current
CN1Cc2c(F)ccc3scc(c23)S1(=O)=O [Example 4, 6-fluoro-4-methyl-4,5-dihydro-1,3-dithia-4-aza-acenaphthylene 3,3-dioxide]	++
CN1Cc2cccc3scc(c23)S1(=O)=O [Example 1, 4-methyl-4,5-dihydro-1,3-dithia-4-aza-acenaphthylene 3,3-dioxide]	++
CN1Cc2ccc(Cl)c3scc(c23)S1(=O)=O [Example 3, 8-chloro-4-methyl-4,5-dihydro-1,3-dithia-4-aza-acenaphthylene 3,3-dioxide]	+
6-chloro-4-methyl-4,5-dihydro-1.3-dithia-4-aza-acenaphthylene 3.3-dioxide [Example 5]	+
CCN1Cc2cccc3scc(c23)S1(=O)=O [Example 2, 4-ethyl-4.5-dihydro-1,3-dithia-4-aza-acenaphthylene 3,3-dioxide]	+
